The source of these data is ChEMBL document CHEMBL5137082, “Discovery of a Novel Vascular Disrupting Agent Inhibiting Tubulin Polymerization and HDACs with Potent Antitumor Effects” (J Med Chem, 2022).

Activity calls are given as the source filed them. No cut-off for these calls is given here.

One data set concerns K562. Briefly: cells. The data set is classed as functional, cell-based. The conditions noted are these: Homo sapiens, K562, 72 h.
The test system of the next data set is HCT-116. Briefly: Antiproliferative activity against human HCT-116 cells assessed as inhibition of cell growth measured after 72 hrs by MTT assay. Type of data set: functional, cell-based. To be noted: HCT-116, 72 h.
For another data set, the system named is MDA-MB-231. Briefly: Antiproliferative activity against human MDA-MB-231 cells assessed as inhibition of cell growth measured after 72 hrs by MTT assay. Type of data set: functional, cell-based. The conditions noted are these: MDA-MB-231, 72 h.
The test system of data set [1] is H22. Briefly: Antiproliferative activity against mouse H22 cells assessed as inhibition of cell growth measured after 72 hrs by MTT assay. The data set is classed as functional, cell-based. The conditions noted are these: H22, 72 h.
In the next data set the target is T1, Histone deacetylase 8 (Homo sapiens, UniProt Q9BY41).
T1 sequence (Q9BY41 whole entry): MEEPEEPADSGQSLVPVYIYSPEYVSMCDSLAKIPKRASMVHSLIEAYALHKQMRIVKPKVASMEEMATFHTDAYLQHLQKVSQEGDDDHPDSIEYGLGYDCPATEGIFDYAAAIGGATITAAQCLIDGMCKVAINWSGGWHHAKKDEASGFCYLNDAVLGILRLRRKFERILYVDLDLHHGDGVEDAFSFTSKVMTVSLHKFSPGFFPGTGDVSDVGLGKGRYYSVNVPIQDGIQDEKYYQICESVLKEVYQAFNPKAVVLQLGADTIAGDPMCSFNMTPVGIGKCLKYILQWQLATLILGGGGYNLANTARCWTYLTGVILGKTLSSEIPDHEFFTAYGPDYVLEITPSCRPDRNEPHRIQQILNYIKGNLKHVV
Briefly: Inhibition of HDAC8 in human HeLa cells using BOC-K(Ac)-AMC as substrate measured after 30 mins by fluorescence based microtiter plate reader assay. The data set is classed as cell-based.

The next data set concerns the target Histone deacetylase 1 (Homo sapiens, UniProt Q13547). Briefly: Inhibition of HDAC1 in human HeLa cells using BOC-K(Ac)-AMC as substrate measured after 30 mins by fluorescence based microtiter plate reader assay. Type of data set: cell-based.
A further data set deals with MCF7. Briefly: Antiproliferative activity against human MCF7 cells assessed as inhibition of cell growth measured after 72 hrs by MTT assay. Type of data set: functional, cell-based. To be noted: MCF7, 72 h.
The next data set concerns HepG2. Briefly: Antiproliferative activity against human HepG2 cells assessed as inhibition of cell growth measured after 72 hrs by MTT assay. Type of data set: functional, cell-based. To be noted: HepG2, 72 h.
Data set [2] is described as follows: Antiproliferative activity against human HFL1 cells assessed as inhibition of cell growth measured after 72 hrs by MTT assay. The data set is classed as toxicity, cell-based.
Another data set deals with Histone deacetylase 2 (Homo sapiens, UniProt Q92769). Briefly: Inhibition of HDAC2 in human HeLa cells using BOC-K(Ac)-AMC as substrate measured after 30 mins by fluorescence based microtiter plate reader assay. Type of data set: cell-based.
A further data set addresses Histone deacetylase 3 (Homo sapiens, UniProt O15379). Briefly: Inhibition of HDAC3 in human HeLa cells using BOC-K(Ac)-AMC as substrate measured after 30 mins by fluorescence based microtiter plate reader assay. The data set is classed as cell-based.
The target of data set [3] is T2, Protein deacetylase HDAC6 (Homo sapiens, UniProt Q9UBN7).
T2 sequence (Q9UBN7 whole entry): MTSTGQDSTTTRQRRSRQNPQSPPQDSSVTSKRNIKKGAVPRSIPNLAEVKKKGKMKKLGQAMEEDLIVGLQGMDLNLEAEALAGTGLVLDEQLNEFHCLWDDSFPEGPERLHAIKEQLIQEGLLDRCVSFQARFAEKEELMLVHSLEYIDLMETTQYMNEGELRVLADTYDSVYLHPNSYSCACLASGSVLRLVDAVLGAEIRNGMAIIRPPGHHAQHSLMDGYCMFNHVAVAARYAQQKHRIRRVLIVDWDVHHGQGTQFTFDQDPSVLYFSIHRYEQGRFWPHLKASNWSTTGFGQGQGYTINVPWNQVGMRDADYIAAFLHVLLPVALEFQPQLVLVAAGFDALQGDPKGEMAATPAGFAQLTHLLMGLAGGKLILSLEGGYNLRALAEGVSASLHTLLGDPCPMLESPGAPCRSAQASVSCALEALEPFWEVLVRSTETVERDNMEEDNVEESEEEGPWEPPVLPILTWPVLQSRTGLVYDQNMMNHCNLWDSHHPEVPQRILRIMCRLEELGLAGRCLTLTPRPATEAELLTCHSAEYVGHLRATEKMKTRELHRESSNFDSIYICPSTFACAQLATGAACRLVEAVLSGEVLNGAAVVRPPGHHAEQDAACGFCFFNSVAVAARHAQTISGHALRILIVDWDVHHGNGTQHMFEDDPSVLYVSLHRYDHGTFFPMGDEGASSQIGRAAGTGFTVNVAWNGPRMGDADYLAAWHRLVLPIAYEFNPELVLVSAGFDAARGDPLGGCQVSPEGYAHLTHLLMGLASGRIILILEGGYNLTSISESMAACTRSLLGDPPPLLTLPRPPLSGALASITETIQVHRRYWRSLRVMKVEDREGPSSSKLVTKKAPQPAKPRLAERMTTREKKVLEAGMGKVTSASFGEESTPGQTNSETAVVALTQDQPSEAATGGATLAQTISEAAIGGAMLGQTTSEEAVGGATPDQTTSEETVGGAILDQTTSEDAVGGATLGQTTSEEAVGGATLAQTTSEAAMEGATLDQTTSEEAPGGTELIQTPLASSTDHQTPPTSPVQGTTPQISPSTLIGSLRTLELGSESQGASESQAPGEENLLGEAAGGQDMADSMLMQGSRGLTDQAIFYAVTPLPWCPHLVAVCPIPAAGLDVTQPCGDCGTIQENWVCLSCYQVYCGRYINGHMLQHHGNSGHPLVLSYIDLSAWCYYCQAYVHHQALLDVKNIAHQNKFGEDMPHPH
Briefly: Inhibition of HDAC6 in human HeLa cells using BOC-K(Ac)-AMC as substrate measured after 30 mins by fluorescence based microtiter plate reader assay. Type of data set: cell-based.

Data set [4] has as its system H22. Briefly: Antitumor activity against mouse H22 cells allografted in ICR mouse assessed as reduction in tumor weight at 25 mg/kg, ip administered qd measured after 21 days. Type of data set: functional. Also on record: scale not given: the % may be the effect or the level left. To be noted: time 21 day.
Data set [5] has as its system H22. Briefly: Antitumor activity against mouse H22 cells allografted in ICR mouse assessed as reduction in tumor weight at 20 mg/kg, iv administered qd measured after 21 days. The conditions noted are these: time 21 day. Also on record: scale not given: the % may be the effect or the level left. The data set is classed as functional.
The test system of data set [6] is H22. Briefly: Antivascular activity against mouse H22 cells allografted in ICR mouse assessed as reduction in tumor microvessel density by measuring CD31-positive cells at 20 mg/kg, iv administered qd measured after 21 days by immunohistochemistry analysis. Type of data set: functional, organism-based. The conditions noted are these: time 21.0 day.
The subject of data set [7] is H22. Briefly: Antivascular activity against mouse H22 cells allografted in ICR mouse assessed as inhibition of blood vessel formation at 20 mg/kg, iv administered qd measured after 21 days by immunohistochemistry analysis. The data set is classed as functional, organism-based. The conditions noted are these: time 21.0 day.
For another data set, the system named is HUVEC. Briefly: Antivascular activity against HUVEC cells assessed as inhibition of capillary-like tubule formation at 30 nM measured after 6 hrs by inverted microscopy. Type of data set: functional, cell-based. To be noted: Homo sapiens.

Chain of Histone deacetylase 1 (Q13547 whole entry): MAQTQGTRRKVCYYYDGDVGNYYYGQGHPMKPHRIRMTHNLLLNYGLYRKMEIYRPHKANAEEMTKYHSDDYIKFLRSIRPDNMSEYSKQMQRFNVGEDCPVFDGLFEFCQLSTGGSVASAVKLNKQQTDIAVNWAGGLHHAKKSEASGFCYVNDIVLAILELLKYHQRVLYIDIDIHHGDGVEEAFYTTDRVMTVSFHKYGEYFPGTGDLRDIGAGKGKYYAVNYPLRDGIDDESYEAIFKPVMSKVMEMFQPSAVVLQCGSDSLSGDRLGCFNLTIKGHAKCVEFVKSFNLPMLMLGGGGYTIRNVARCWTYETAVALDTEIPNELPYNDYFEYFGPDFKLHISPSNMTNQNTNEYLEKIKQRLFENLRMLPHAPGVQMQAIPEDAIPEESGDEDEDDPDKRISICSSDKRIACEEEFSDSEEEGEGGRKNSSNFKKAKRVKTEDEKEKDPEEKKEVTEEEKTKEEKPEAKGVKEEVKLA
Chain of Histone deacetylase 3 (O15379 whole entry): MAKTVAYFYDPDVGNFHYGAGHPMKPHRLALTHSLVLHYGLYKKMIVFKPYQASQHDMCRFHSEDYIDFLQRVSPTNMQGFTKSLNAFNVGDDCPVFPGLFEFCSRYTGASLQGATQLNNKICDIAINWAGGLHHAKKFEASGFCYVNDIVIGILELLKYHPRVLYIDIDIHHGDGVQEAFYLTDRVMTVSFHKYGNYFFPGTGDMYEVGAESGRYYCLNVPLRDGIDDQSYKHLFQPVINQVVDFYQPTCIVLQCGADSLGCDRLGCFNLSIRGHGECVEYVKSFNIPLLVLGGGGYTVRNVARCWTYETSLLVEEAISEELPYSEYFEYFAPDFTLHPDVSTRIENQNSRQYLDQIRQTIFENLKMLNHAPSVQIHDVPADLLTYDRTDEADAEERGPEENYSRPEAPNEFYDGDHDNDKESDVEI
Chain of Histone deacetylase 2 (Q92769 whole entry): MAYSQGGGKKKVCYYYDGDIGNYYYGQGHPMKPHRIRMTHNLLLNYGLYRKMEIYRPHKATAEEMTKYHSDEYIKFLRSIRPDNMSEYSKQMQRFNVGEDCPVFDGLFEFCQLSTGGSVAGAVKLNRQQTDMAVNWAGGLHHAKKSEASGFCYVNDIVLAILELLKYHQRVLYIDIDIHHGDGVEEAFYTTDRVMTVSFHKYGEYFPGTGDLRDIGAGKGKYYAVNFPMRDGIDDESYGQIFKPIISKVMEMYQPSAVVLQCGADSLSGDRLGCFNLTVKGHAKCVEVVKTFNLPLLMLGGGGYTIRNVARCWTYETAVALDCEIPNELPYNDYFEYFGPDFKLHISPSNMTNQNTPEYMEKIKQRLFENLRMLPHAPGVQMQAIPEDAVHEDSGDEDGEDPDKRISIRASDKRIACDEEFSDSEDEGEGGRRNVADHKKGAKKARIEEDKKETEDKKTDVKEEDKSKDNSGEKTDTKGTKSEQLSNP
Description for K562: Antiproliferative activity against human K562 cells assessed as inhibition of cell growth measured after 72 hrs by MTT assay

`COc1ccc(CNC(=O)c2cc(C(=O)NO)ccc2N2CCOCC2)cc1O` gave a half-inhibitory concentration (IC50) in the data set on K562 of more than 2000 nM.
On the same count and under the same terms, next, `COc1ccc(CNC(=O)c2cc(OCCCCCCC(=O)NO)ccc2N2CCOCC2)cc1O`: more than 2000 nM; `COc1ccc(CNC(=O)c2cc(F)ccc2N2CCOCC2)cc1OCCCC(=O)NO`: 1040 nM.
In the data set on K562, `O=C(/C=C/c1cccc(CNC(=O)c2cc(F)ccc2N2CCOCC2)c1)NO` came in with a half-maximal inhibitory concentration (IC50) of 664 nM.
With `COc1ccc(CNC(=O)c2cc(C#CCCCCC(=O)NO)ccc2N2CCOCC2)cc1O`, the IC50 in the data set on K562 was more than 2000 nM.
Regarding `COc1ccc(CNC(=O)c2cc(C(=O)Nc3ccccc3N)ccc2N2CCOCC2)cc1O`, the IC50 turned out to be 77 nM in the data set with HCT-116; 101 nM with MDA-MB-231; 96 nM in the data set with H22 [1]; 2240 nM at Histone deacetylase 8; 16500 nM at Histone deacetylase 1; 105 nM in the data set on MCF7. In addition, the half-maximal inhibitory concentration (IC50) in the data set with HepG2 came out at 97 nM; in the data set on K562, 114 nM; on Histone deacetylase 2, 28000 nM; against Histone deacetylase 3, 530 nM; in data set [3], 668 nM. Besides, the half-inhibitory concentration (IC50) at 72 h in data set [2] is 323 nM.
In the data set with K562, `COc1ccc(CNC(=O)c2cc(F)ccc2N2CCOCC2)c(/C=C/C(=O)NO)c1` yielded an IC50 of 2000 nM.
As for `COc1ccc(CNC(=O)c2cc(F)ccc2N2CCOCC2)cc1C(=O)NO`, the half-maximal inhibitory concentration (IC50) with K562 is 1030 nM.
`COc1cc(CCC(=O)NO)ccc1CNC(=O)c1cc(F)ccc1N1CCOCC1` yielded a half-inhibitory concentration (IC50) in the data set with K562 of more than 2000 nM.
Take `O=C(CCCCCCC(=O)Nc1ccccc1)NO` [VORINOSTAT]: the Activity in the data set with H22 [4] stood at 61%.
`COc1ccc(CNC(=O)c2cc(F)ccc2N2CCOCC2)cc1O`: the Activity in the data set on H22 [5] is listed as 74%. Moreover, the half-inhibitory concentration (IC50) was 29 nM with HCT-116; 26 nM with MDA-MB-231; 29 nM with H22 [1]; 32 nM in the data set with MCF7; 27 nM in the data set with HepG2; 17 nM in the data set on K562. Further, the outcome in the data set with H22 [6], with H22 [7] and in the data set on HUVEC was Active. The IC50 at 72 h in [2] came out at 126 nM.
As to `COc1cc(CNC(=O)c2cc(F)ccc2N2CCOCC2)ccc1CCC(=O)NO`, in the data set on K562, the IC50 is more than 2000 nM.
`COc1ccc(CNC(=O)c2cc(C#CCCC(=O)NO)ccc2N2CCOCC2)cc1O` came in with an IC50 with K562 of more than 2000 nM.
In the case of `O=C(/C=C/c1cc(CNC(=O)c2cc(F)ccc2N2CCOCC2)ccc1O)NO`, the IC50 in the data set with HCT-116 came to 823 nM; in the data set with MDA-MB-231 it was 642 nM; with H22 [1], 733 nM; with MCF7, 775 nM; with HepG2, 700 nM; in the data set with K562 it was 285 nM. Further, the IC50 at 72 h in [2] came to 3260 nM.
Regarding `COc1ccc(CNC(=O)c2cc(F)ccc2N2CCOCC2)cc1C(=O)Nc1ccccc1N`, the IC50 in the data set with K562 is more than 2000 nM.
On the same count and under the same terms, next, `COc1ccc(CNC(=O)c2cc(F)ccc2N2CCOCC2)cc1CCC(=O)NO`: more than 2000 nM; `COc1ccc(CNC(=O)c2cc(F)ccc2N2CCOCC2)cc1OCCCCCCC(=O)NO`: 1500 nM; `COc1cc(CNC(=O)c2cc(F)ccc2N2CCOCC2)ccc1/C=C/C(=O)NO`: 1970 nM.
`COc1ccc(CNC(=O)c2cc(/C=C/C(=O)NO)ccc2N2CCOCC2)cc1O` showed a concentration for half-maximal inhibition (IC50) with K562 of more than 2000 nM.
In the data set on K562, `COc1ccc(CNC(=O)c2cc(F)ccc2N2CCOCC2)cc1C#CCCCCC(=O)NO` registered a half-inhibitory concentration (IC50) of 921 nM.
On to `COc1ccc(CNC(=O)c2cc(F)ccc2N2CCOCC2)cc1C#CCCC(=O)NO`, for which the half-maximal inhibitory concentration (IC50) in the data set with K562 turned out to be 354 nM.
In the case of `COc1ccc(CNC(=O)c2cc(OCCCC(=O)NO)ccc2N2CCOCC2)cc1O`, the concentration for half-maximal inhibition (IC50) in the data set with K562 was more than 2000 nM.
`COc1cc(/C=C/C(=O)NO)ccc1CNC(=O)c1cc(F)ccc1N1CCOCC1` gave an IC50 in the data set with K562 of 1660 nM.
The same measure, in the same setting: next, `COc1ccc(CNC(=O)c2cc(OCC(=O)NO)ccc2N2CCOCC2)cc1O`: more than 2000 nM.
As for `COc1ccc(CNC(=O)c2cc(F)ccc2N2CCOCC2)cc1OCC(=O)NO`, the half-maximal inhibitory concentration (IC50) in the data set on HCT-116 amounted to 105 nM; in the data set on MDA-MB-231, 104 nM; in the data set on H22 [1] it was 95 nM; against Histone deacetylase 8 it was 16500 nM; at Histone deacetylase 1, 8860 nM; with MCF7 it was 124 nM. In addition, the half-inhibitory concentration (IC50) with HepG2 was 114 nM; in the data set on K562, 61 nM; against Histone deacetylase 2 it was 6720 nM; on Histone deacetylase 3, 3250 nM; in data set [3], 2420 nM. The 50% inhibitory concentration (IC50) at 72 h in [2] was determined as 495 nM.
Consider `COc1ccc(CNC(=O)c2cc(F)ccc2N2CCOCC2)c(CCC(=O)NO)c1`, for which the IC50 with K562 was 1060 nM.
